Source: patent publication US12097202B2 (Kadmon Corporation, LLC, priority 2022, dated 2024)

Columns and labels:
[1] = Clinical drug interaction studies, effects of other drugs on belumosudil in healthy subjects; type: in vivo, human
rat bone marrow = experiment: in vivo rat bone marrow micronucleus assay
P-gp = P-gp (Homo sapiens, UniProt P08183); experiment: In vitro transporter study, P-gp; type: in vitro ADME
UGT1A1 = biological target: T1, UGT1A1 (Homo sapiens, UniProt P22309); experiment: In vitro enzyme inhibition, UGT1A1; type: in vitro ADME
T1 sequence (P22309 26-533): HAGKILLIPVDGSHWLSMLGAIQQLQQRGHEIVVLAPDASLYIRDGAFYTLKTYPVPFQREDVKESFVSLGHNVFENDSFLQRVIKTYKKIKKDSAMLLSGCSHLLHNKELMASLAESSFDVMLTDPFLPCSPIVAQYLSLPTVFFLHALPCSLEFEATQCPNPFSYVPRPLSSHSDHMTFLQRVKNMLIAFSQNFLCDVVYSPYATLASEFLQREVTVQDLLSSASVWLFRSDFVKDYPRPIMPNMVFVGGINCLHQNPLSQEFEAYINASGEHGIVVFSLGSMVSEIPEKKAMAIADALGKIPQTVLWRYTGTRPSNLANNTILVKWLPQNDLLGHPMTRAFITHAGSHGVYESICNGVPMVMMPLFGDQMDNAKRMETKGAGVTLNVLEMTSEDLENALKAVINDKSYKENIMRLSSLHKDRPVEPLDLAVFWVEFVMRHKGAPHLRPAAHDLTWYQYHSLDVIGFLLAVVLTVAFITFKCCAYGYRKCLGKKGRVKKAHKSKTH

[2] = Clinical pharmacokinetics in chronic GVHD patients; type: in vivo, human
[3] = tested on: patients with chronic GVHD; details: human, in vivo;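 also: allogeneic HCT recipients aged ≥12 years with persistent cGVHD after two to five earlier systemic treatment lines, responses judged by site investigators, 12-month analysis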
Excerpt: Concomitant treatment with supportive care therapies for chronic GVHD was permitted. […] Initiation of new systemic chronic GVHD therapy while on study was not permitted.
Eligible subjects were allogeneic hematopoietic cell transplant recipients aged ≥12 years with persistent cGVHD manifestations after receiving 2 to 5 prior systemic lines of therapy. Subjects were required to be receiving stable corticosteroid therapy for 2 weeks prior to screening and to have a Karnofsky or Lansky Performance Status Scale score≥60. Certain concurrent immunosuppressive medications were allowed because drug-drug interactions were not anticipated.
Randomization was stratified (1:1) by cGVHD severity and prior exposure to ibrutinib.
All responses were assessed by the study site investigators. Secondary end points included duration of response (DOR), time to response, changes in LSS summary score, failure-free survival (FFS), corticosteroid dose reductions, and overall survival (OS). DOR was measured from the time of initial PR or CR until documented progression from best response of cGVHD, time from initial response to start of additional systemic cGVHD therapy, or death. The 7-day LSS summary score was calculated based on the developer recommendations and was compared with the score from baseline; an improvement ≥7 points was considered clinically meaningful. […] Relative dose intensity (RDI) was used as a surrogate measure of drug tolerability and was defined as actual dose intensity/planned dose intensity, where dose intensity was defined as the cumulative dose over the duration of exposure (mg/d). Actual dose intensity captured the sum of actual doses received over the duration of exposure and incorporated dose reductions and/or interruptions.
The Hochberg procedure was used for multiplicity adjustment for the primary end point of best ORR. […] CI was calculated using the Clopper-Pearson interval (exact) method.

OATP1B1 = biological target: T2, OATP1B1 (Homo sapiens, UniProt Q9Y6L6); experiment: In vitro transporter study, OATP1B1; type: in vitro ADME; details: at clinically relevant concentrations
T2 sequence (Q9Y6L6 1-691): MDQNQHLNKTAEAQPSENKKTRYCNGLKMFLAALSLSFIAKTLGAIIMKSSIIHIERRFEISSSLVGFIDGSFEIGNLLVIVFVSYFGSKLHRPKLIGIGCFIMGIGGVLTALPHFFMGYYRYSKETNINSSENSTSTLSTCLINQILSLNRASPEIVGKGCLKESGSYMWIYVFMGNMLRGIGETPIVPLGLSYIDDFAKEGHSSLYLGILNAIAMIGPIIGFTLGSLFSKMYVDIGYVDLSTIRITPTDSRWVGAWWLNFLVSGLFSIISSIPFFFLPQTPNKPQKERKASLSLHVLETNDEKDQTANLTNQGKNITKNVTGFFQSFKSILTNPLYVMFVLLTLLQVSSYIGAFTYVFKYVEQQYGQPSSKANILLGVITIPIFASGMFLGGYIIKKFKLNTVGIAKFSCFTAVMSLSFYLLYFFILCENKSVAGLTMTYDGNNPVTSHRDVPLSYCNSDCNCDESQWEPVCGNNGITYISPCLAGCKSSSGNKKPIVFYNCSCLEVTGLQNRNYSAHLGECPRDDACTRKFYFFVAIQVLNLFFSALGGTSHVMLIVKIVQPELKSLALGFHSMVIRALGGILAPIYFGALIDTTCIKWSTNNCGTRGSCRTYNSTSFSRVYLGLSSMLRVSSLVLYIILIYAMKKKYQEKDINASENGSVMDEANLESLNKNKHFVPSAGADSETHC

CYP2C19 = CYP2C19 (Homo sapiens, UniProt P33261); experiment: In vitro enzyme inhibition, CYP2C19; type: in vitro ADME
CYP2D6 [4] = biological target: T3, CYP2D6 (Homo sapiens, UniProt P10635); experiment: In vitro enzyme inhibition, CYP2D6; type: in vitro ADME
UGT1A9 = biological target: T4, UGT1A9 (Homo sapiens, UniProt O60656); experiment: In vitro enzyme inhibition, UGT1A9; type: in vitro ADME
T4 sequence (O60656 26-530): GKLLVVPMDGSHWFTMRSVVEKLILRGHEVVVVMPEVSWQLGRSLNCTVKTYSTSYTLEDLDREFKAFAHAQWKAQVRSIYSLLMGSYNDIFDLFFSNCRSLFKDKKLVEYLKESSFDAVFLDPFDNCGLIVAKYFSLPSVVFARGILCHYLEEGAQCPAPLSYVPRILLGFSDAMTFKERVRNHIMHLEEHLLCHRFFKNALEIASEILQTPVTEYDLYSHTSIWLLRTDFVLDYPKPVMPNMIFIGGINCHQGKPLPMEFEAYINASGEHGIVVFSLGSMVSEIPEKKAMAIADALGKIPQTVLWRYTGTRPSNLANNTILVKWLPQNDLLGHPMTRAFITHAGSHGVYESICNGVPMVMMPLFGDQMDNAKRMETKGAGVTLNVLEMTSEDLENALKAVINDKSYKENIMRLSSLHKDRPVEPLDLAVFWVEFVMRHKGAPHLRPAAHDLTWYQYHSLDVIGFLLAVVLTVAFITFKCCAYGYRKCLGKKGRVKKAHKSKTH

dogs = experiment: General toxicology studies in dogs; type: in vivo, dog
rats = experiment: Combined male and female rat fertility study; type: in vivo; details: oral
Excerpt: In a combined male and female rat fertility study, belumosudil-treated male animals were mated with untreated females, or untreated males were mated with belumosudil-treated females.

CYP2D6 [5] = biological target: T3, CYP2D6; experiment: In vitro metabolism by CYP2D6; type: in vitro ADME

Sequence of P-gp (P08183 whole entry): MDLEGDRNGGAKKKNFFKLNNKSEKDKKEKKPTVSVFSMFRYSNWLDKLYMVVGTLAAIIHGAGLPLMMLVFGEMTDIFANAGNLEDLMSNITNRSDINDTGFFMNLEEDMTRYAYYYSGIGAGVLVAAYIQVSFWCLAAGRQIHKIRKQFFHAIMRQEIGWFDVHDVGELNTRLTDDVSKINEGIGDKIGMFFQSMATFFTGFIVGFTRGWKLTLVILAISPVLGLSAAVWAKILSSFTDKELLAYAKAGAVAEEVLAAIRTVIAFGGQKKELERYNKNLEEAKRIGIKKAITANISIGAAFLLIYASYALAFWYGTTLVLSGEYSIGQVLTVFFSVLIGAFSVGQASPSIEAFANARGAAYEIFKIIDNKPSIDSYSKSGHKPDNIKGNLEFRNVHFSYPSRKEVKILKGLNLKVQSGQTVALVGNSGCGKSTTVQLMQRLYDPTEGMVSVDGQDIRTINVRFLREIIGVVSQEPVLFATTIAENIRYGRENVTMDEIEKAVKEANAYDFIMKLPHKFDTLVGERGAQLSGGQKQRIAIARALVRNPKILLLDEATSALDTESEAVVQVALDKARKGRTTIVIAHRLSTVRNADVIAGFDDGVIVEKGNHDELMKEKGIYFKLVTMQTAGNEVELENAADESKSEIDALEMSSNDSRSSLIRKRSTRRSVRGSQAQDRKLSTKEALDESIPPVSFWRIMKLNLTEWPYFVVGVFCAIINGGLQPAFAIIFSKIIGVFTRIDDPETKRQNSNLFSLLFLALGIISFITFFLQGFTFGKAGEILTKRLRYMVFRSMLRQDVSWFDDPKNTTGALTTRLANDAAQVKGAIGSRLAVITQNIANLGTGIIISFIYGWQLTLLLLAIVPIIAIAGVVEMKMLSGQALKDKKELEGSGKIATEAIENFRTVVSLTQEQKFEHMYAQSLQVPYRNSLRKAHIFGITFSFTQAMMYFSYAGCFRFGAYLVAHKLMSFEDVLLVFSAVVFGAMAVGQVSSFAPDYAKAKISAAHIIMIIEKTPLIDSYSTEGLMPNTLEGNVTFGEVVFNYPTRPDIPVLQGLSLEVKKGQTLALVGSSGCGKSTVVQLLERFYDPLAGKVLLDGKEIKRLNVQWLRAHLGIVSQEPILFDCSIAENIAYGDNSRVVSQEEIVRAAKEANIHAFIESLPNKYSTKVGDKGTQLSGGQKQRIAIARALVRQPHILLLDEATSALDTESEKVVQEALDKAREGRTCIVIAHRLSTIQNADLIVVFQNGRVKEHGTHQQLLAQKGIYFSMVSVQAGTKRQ
T3 sequence (P10635 whole entry): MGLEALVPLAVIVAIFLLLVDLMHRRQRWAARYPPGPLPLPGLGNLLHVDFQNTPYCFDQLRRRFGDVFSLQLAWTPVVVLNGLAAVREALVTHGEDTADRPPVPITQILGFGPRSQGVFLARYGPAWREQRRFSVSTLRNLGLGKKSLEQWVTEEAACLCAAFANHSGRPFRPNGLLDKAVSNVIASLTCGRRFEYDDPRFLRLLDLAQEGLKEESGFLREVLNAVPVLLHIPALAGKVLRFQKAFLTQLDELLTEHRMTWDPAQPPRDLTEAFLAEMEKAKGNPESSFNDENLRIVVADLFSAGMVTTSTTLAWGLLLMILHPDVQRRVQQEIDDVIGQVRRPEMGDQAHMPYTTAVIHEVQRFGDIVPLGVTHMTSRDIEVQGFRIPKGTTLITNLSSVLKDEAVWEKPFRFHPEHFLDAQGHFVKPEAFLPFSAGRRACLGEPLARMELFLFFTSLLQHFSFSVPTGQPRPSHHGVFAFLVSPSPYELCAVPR
Sequence of CYP2C19 (P33261 whole entry): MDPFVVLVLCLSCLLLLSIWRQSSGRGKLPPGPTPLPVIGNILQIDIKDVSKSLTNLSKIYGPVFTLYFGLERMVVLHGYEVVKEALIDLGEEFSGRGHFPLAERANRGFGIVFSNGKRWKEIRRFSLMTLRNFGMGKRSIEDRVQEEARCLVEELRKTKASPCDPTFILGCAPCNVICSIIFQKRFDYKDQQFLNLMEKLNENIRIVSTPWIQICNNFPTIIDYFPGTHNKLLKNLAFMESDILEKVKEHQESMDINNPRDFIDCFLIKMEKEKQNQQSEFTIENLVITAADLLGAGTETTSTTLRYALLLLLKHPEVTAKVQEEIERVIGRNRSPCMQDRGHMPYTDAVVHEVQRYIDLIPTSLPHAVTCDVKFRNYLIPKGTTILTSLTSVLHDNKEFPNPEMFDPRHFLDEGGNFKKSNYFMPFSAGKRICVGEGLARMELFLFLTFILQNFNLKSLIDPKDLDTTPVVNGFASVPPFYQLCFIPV

CC(C)NC(=O)COc1cccc(-c2nc(Nc3ccc4[nH]ncc4c3)c3ccccc3n2)c1 [belumosudil, 2-{3-[4-(1H-indazol-5-ylamino)-2-quinazolinyl]phenoxy}-N-(propan-2-yl) acetamide]
decrease of belumosudil AUC with omeprazole [1]: 47%
decrease of belumosudil AUC with rabeprazole [1]: 80%
decrease of belumosudil AUC with rifampin [1]: 72%
decrease of belumosudil Cmax with omeprazole [1]: 68%
decrease of belumosudil Cmax with rabeprazole [1]: 87%
decrease of belumosudil Cmax with rifampin [1]: 59%
effect of itraconazole (strong CYP3A inhibitor) on belumosudil exposure [1]: no clinically meaningful effect
genotoxicity, bone marrow micronucleus assay (rat bone marrow): not genotoxic
P-gp substrate status (P-gp): substrate of P-gp
inhibition of P-gp (P-gp; at clinically relevant concentrations): inhibits
inhibition of UGT1A1 (UGT1A1): inhibitor
increase of Cmax and AUC with dose ([2]; dosage range of 200 and 400 mg): approximately proportional
effect of age (18 to 77 years), sex, weight (38.6 to 143 kg), mild to moderate renal impairment on pharmacokinetics ([2]; human, in vivo): No clinically significant differences
Upper respiratory tract infection [3]: (27) %
inhibition of OATP1B1 (OATP1B1): inhibits
inhibition of CYP2C19 (CYP2C19): inhibitor
inhibition of CYP2D6 (CYP2D6 [4]): inhibitor
inhibition of UGT1A9 (UGT1A9): inhibitor
dose with spermatozoa degeneration (dogs): 35 mg/kg/day
dose with adverse fertility findings (pre- or post-implantation loss, fewer viable embryos, abnormal sperm, testes/epididymis changes, reduced fertility) (rats): 275 mg/kg/day
metabolism by CYP2D6 (CYP2D6 [5]): to a lesser extent
